Test results from US12070444B2, “Modulation of molecular markers using S-equol” (Board of Regents, The University of Texas System, priority 2020, dated 2024).
“Also recorded” adds a separate entry of the source.

Key:
[1] = tested on: TNBC; assay: Pilot biomarker clinical study of S-equol in TNBC (Example 12); format: in vivo, human
Protocol: A pilot biomarker clinical study was performed in 20 subjects with documented TNBC to determine the effect of the ERβ agonist S-equol on Ki67 an indicator of tumor cell proliferation. Tumor cell proliferation was measured by immunohistological staining for Ki-67. See, FIG. 18 for the outline of the protocol. Ki-67 is encoded by the gene MKI67 gene and is required to maintain individual mitotic chromosomes dispersed in the cytoplasm following nuclear envelope disassembly. Measuring the fraction of Ki-67-positive cells in a tumor is known to be a reliable parameter for assessing cancer patient prognosis. Subjects with TNBC are known to have very high levels of Ki67.
Patients enrolled in the study received a history, physical, laboratory assessment, radiological imaging, and diagnostic biopsies. Immunohistochemistry (IHC) of Ki67 (proliferation marker), total ERβ, and pY36-ERβ (phosphorylated ERβ, B7H1 (also known as PDL-1) and BRCA1 (breast cancer 1, early onset) were conducted using core needle biopsy tissue samples prior to treatment. Patients were given oral S-equol 50 mg, twice daily for approximately two weeks (10-21 days) prior to the scheduled oncologic surgeries or start of primary systemic therapy. Tumor samples were obtained from the surgery or the two-week repeat core needle biopsy. Post-treatment IHC evaluation of Ki67, total ERβ, phosphorylated ERβ (pY36) and BRCA1 were obtained. Ki67 reduction is a validated surrogate marker of both short and long term hormonal therapy efficacy in trials of human breast cancer and was compared pre- and post-treatment with S-equol. […] A c-DNA microarray platform was also used to discover downstream transcriptional targets of ERβ resulting from activation by S-equol.
Women eligible for the study had newly diagnosed, previously untreated, triple negative breast cancer, with an intact primary breast tumor of any size. All stages of the disease were eligible. They took S-equol during the time they underwent standard preoperative evaluation or pre-therapeutic work-up for advanced disease, such as staging procedures or central line placement. If primary surgery was performed, tissue leftover after standard diagnostic evaluation was used for the two-week biomarker assessment. […] See, FIG. 10.
A standard procedure for acquiring core biopsy with a Bard 14-gauge needle was utilized for determining TNBC prior to enrollment. Whenever possible, the tumor tissues used for IHC analyses were acquired at the same time as the diagnostic core biopsy. The tissue samples were sent for staining of total and pY36 ERβ and Ki67, and analyzed. Testing for ERα, PR, and HER-2 was performed using validated methods. TNBC tumors were defined as less than 5% nuclear staining of carcinoma cells for ERα and PR and either 0, 1, or 2+ staining for HER-2 by IHC. Whole-Genome DASL HT platform from Illumina, which is designed for gene expression profiling with extremely low input of RNA (50 pg), was used to interrogate paired FFPE tissue obtained before and after exposure to S-equol.
The primary analysis estimated the geometric mean change of the Ki67 expression from baseline to two weeks. This was performed using a one-sample t-test of the pre/post differences in the log-transformed data, and summarized by the 95% confidence interval. […]

[2] = target: T1, ERβ pY36 (Homo sapiens, UniProt Q92731); details: breast cancer cells; published work (Yuan, 2016); cited from earlier work
T1 construct: host or cells: MDA-MB-231 (human TNBC cell line)

[3] = tested on: AT3 mammary tumor cell line; assay: AT3 mammary tumor challenge in mice treated with S-equol and/or anti-PD-1 antibody; format: in vivo, mouse
Protocol: The following three murine mammary tumor lines were tested to determine the effects of a PD-1 inhibitor, S-equol and a combination of the two therapies on tumor growth: (1) E0771 (B6 background), (2) AT-3 (B6 background), and (3) 4T1 (BalbC background). This experimental design includes four arms (using AT-3 as an example): (1) controls, (2) αPD-1, (3) S-equol, and (4) αPD-1+S-equol (FIG. 3) by injecting into mice 2×10^5 cells subcutaneously into the 4th mammary gland fat pad. Antibodies were administered α-PD-1: 200 μg/mice by i.p. injection every 3 days and S-equol was administered at 50 mg/kg/day by oral gavage. Treatment began 7 day after tumor challenge. Tumor growth trajectories were compared within treated mice using a repeated measures linear mixed model. The primary outcome was the logarithm of the tumor size, and the test statistic is the treatment×time interaction. Tumors were measured about 10 times. The number of recipient mice use used in the studies (n=8 per group) was based on the above study.
For tumor studies, 8 to 10-week-old mice were used. M-Wnt (5 Å˜10^5 cells), E0771 (5 Å˜10^5 cells), AT-3 (2 Å˜10^5 cells), and EMT-6 (5 Å˜10^5 cells) tumor cells were subcutaneously inoculated into the fourth mammary pad. B16F10 (0.5 Å˜10^6 cells) and MC38 (5 Å˜10^6 cells) tumor cells were subcutaneously inoculated into the back flank. Tumor volume was measured with calipers (0.5 Å˜length Å˜width2) on the indicated days. Anti-IgG2a (BioXcell, Cat: #BE0146) and anti-PD-1 (BioXcell, Cat: #BE0089) antibodies were administered through intraperitoneal (i.p.) injection at a dose of […] every 3 days starting on day 7 after tumor challenge for the duration as indicated. S-equol (from Ausio Pharmaceuticals) was administered daily by oral gavage at 50 mg/kg beginning on the day of tumor challenge and continuing throughout the entire tumor growth experiments.

[4] = of 17 evaluable patients, S-equol 50 mg twice daily 10-21 days

T1 sequence (Q92731 whole entry): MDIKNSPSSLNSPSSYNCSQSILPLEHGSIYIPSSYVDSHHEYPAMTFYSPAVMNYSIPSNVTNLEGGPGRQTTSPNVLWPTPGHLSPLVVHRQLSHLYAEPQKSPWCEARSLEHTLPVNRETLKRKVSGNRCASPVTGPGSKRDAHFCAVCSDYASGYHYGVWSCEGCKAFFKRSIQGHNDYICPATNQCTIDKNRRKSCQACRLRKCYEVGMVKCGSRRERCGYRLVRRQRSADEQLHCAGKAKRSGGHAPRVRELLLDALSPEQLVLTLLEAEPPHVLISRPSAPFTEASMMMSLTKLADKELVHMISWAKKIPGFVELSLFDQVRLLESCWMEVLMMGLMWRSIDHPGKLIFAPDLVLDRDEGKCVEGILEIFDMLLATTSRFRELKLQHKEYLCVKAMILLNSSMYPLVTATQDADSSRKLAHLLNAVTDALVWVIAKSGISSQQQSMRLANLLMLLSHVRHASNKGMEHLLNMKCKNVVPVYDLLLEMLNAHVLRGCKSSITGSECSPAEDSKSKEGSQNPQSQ

Oc1ccc([C@H]2COc3cc(O)ccc3C2)cc1 [S-equol]
change in Ki67 pre- vs post-treatment (in words) ([1]; TNBC patients, oral S-equol 50 mg twice daily for 10-21 days): measurable decrease in Ki67; also recorded: measurable decline in Ki67
patients with 0-20% reduction in Ki-67 [1, 4]: 7 patients
patients with greater than 20% reduction in Ki-67 [1, 4]: one
patients with greater than 30% reduction in Ki-67 [1, 4]: 4 patients
patients with no reduction in Ki-67 [1, 4]: 5 patients
human ERβ phosphorylation at Y36 [2]: promotes
tumor weight ([3]; AT3 (FIG. 12B)): reduce tumor weight compared to control
tumor size ([3]; AT3, excised tumors (FIG. 12C)): reduce tumor size compared to control
tumor volume ([3]; AT3, anti-PD-1 200 μg every 3 days, S-equol 50 mg/kg per day, over 35 days post-challenge (FIG. 12A)): reduce tumor volume compared to control
